# Source: patent US20220088010A1, “Co-Administration of inhibitors to produce insulin producing gut cells” (The Trustees of Columbia University in the City of New York, priority 2019, published 2022)
# Entries after “also recorded” stand apart in the source; their conditions may differ.
# Tests used:
# [1] = tested on: intestine enteroendocrine cells of Foxo1 heterozygous knockouts; assay: Co-treatment: DBZ with first dose of FBT9, then FBT9 3 days TID; intestine immunohistochemistry; type: in vivo, mouse; settings: DBZ alone or FBT9 x3 days TID alone (FIG. 9)
# Description: FIG. 8 provides graphs showing the effect of co-treatment of FBT9 and DBZ (DBZ administered in conjunction with first dose of FBT9 followed by sequential administration of FBT9 3 days TID) on body weight and plasma glucose in Foxo1 heterozygous knockouts.
# (§1) The experiment consisted of performing surgery on 8-week-old mice to implant an enterojejujnal catheter to deliver drugs locally to the intestinal mucosa. After a 1-week recovery period, mice were treated with a single i.p. injection of DBZ or vehicle control.
# (§2) was initiated either on the same day or on the following day, t.i.d. by injection via enterojejunal catheter for 3 days. At the end of the experiment, mice were sacrificed and the intestine analyzed for enteroendocrine cell content using immunohistochemistry. […] The treatment regime of FIG. 10 involved administering the first dose of FBT9 with DBZ followed by subsequent doses of FBT9.
# [2] = tested on: intestine enteroendocrine cells; assay: Initial DBZ i.p. followed by FBT9 via enterojejunal catheter (24 hrs after DBZ); intestine analyzed for enteroendocrine cell content by immunohistochemistry; type: in vivo, mouse; settings: FBT9 from 24 hrs later
# Description: as §1, with “control. Administration of Foxo1 inhibitor compound 9 (Langlet et al. 2017 Cell, see below)” for “control.”
# as §2
# [3] = tested on: intestine enteroendocrine cells; assay: Co-administration of FBT10 (enterojejunal catheter) and DBZ (i.p.) in mice; intestine immunohistochemistry; type: in vivo, mouse; settings: FBT10 t.i.d. 3 days with single i.p. DBZ; FIG. 19
# Description: The protocol used above in Example 1 was followed for testing a combination of FBT10 and DBZ. The experiment consisted of performing surgery on 8-week-old mice to implant an enterojejujnal catheter to deliver drugs locally to the intestinal mucosa. After a 1-week recovery period, mice were treated with a single i.p. injection of DBZ or vehicle control. Administration of Foxo1 inhibitor compound 10 (FBT10) was initiated either on the same day or on the following day, t.i.d. by injection via enterojejunal catheter for 3 days. At the end of the experiment, mice were sacrificed and the intestine analyzed for enteroendocrine cell content using immunohistochemistry. Regarding the graphs indicating effects on Body weight and blood glucose, each line represents an individual animal. […] No insulin-positive cells were found in vehicle treated duodenum or colon.
# [4] = tested on: Mouse gut organoid from a wild type mouse; assay: FBT10 treatment of mouse gut organoid, immunohistochemistry; type: cell-based; settings: after 72 hrs of treatment; FIG. 18
# Description: Mouse gut organoid from a wild type mouse was treated with FBT10 (Compound 10, Langlet et al. 2017 Cell, see below).
# gut cells of NOD mice = assay: FBT10 in NOD mice over 96 hr; gut micrographs; type: in vivo, mouse; settings: 96 hr period, FIG. 20
# Description: NOD mice (mouse model whose pancreatic beta cells are destroyed by immunological response) were treated with FBT10 or vehicle over a 96 hr period. […] Insulin-positive cells were not detected in the colon. FIG. 20 also provides graphs showing effects on body weight and blood glucose (each graph line represents an individual animal)
# [5] = tested on: gut cells of Foxo1 knockout mice; assay: Oral gavage of ROCK inhibitor Y-27632 in Foxo1 knockout mice; intestine immunohistochemistry; type: in vivo, mouse; settings: for number of insulin-positive cells in Foxo1 knockout mice not treated with ROCKi relative to those treated: Y-27632 oral gavage q.d. 2 days, FIG. 17, dihydrochloride
# Source text: The experiment consisted of treating 8-week-old mice (Foxo1 knockout mice) by oral gavage dosing of Y-27632, q.d., for 2 days. On day 3, mice were sacrificed and the intestine analyzed for enteroendocrine cell content using immunohistochemistry. The arrows in FIGS. 15 and 16 represent c-peptide and insulin-positive cells, which resemble true beta-like cells.
# Gut Ins+ cells = assay: Insulin secretion by Gut Ins+ cells, block by diazoxide
compound,measurement,setting,value
C[C@H](NC(=O)Cc1cc(F)cc(F)c1)C(=O)N[C@@H]1C(=O)N(C)c2ccccc2-c2ccccc21 [DBZ],ins+ cells after individual treatment,[1],neither which produced ins+ cells
same,number of Serotonin (5HT)-positive cells,[2],increased
same,number of Somatostatin-positive cells,[2],increased
same,number of Glp1-positive cells,[2]; duodenum and jejunum,increased
"COc1ccc(C(=O)Nc2cc(-c3nc4ccccc4[nH]3)n[nH]2)cc1Cl [FBT9, N-(3-(1H-benzo[d]imidazole-2-yl)-1H-pyrazol-5-yl)-3-chloro-4-methoxybenzamide]",ins+ cells after individual treatment,[1],neither which produced ins+ cells
"CN1CCN(c2ccc(C(=O)Nc3cc(-c4nc5ccccc5[nH]4)n[nH]3)cc2)CC1 [FBT10, N-(3-(1H-benzo[d]imidazol-2-yl)-1H-pyrazol-5-yl)-4-(4-methylpiperazin-1-yl)benzamide]",insulin-positive cells in duodenum and colon,[3],present in the duodenum and colon
same,insulin and serotonin (5HT) positive cells,[4],some of the cells turned into insulin and serotonin (5HT) positive cells
same,insulin-positive cells in the colon,gut cells of NOD mice,not detected
same,insulin-positive cells in the jejunum,gut cells of NOD mice,generated insulin-positive cells
"C[C@@H](N)[C@H]1CC[C@H](C(=O)Nc2ccncc2)CC1.Cl.Cl [Y27632, (+)-(R)-trans-4-(1-aminoethyl)-N-(4-pyridyl)cyclohexanecarboxamide dihydrochloride]",Epcam counterstain of insulin-positive cells,"[5]; Foxo1 knockout mice treated with ROCKi, FIG. 16",insulin-positive cells are epithelial
same,number of insulin-positive cells in Foxo1 knockout mice not treated with ROCKi relative to those treated,[5]; listed as ROCK inhibitor,decreases dramatically
same,number of insulin-positive cells in Foxo1 knockout mice not treated with ROCKi relative to those treated,[5]; listed as ROCKi,significantly lower
same,C-peptide staining of Ins+ cells in the gut,"[5]; homozygous Foxo1 knockout mice, FIG. 15",positive for C-peptide
CC1=NS(=O)(=O)c2cc(Cl)ccc2N1 [diazoxide],insulin secretion / release by Gut Ins+ cells,Gut Ins+ cells,can be blocked; also recorded: can be shut off
